{"source": "paper PMC6934700", "about": "“Structure-Guided Design of a Fluorescent Probe for the Visualization of FtsZ in Clinically Important Gram-Positive and Gram-Negative Bacterial Pathogens” (Scientific Reports, 2019)", "key": {"A. baumannii (AbFtsZ)": {"biological_target": "T1, A. baumannii (AbFtsZ) (Acinetobacter baumannii, UniProt V5V8B6)", "T1 sequence (V5V8B6 1-391)": "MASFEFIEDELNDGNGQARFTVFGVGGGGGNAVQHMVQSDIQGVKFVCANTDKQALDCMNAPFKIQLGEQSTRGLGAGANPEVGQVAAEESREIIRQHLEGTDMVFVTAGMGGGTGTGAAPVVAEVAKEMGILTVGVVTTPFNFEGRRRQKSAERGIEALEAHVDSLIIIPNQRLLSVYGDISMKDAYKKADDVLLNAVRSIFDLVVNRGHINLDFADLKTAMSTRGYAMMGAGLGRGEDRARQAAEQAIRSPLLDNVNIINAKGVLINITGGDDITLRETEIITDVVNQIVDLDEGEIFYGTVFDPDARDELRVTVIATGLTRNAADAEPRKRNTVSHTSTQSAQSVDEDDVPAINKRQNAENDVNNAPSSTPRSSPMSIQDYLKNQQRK", "assay": "Fluorescence anisotropy binding of BOFP to AbFtsZ", "details": "for Kd: 50 mM Tris-HCl (pH 7.6), 50 mM KCl, 0.1 µM BOFP", "experimental": "Fluorescence anisotropy experiments were performed using an AVIV model ATF105 spectrofluorometer at 15, 25, or 37 °C. In these experiments, bandwidths were set to 4 nm in both the excitation and emission directions, with the excitation and emission wavelengths being set at 488 nm and 510 nm, respectively. BOFP (0.1 µM) was titrated with increasing concentrations (ranging from 0 to 12 µM) of FtsZ in 120 µL of buffer containing 50 mM Tris-HCl (pH 7.6) and 50 mM KCl. After each protein addition, the samples were equilibrated for 3 minutes, whereupon the fluorescence anisotropy was measured.\nIn this equation, r0 is the anisotropy of the protein-free compound, r∞ is the anisotropy of the compound in the presence of an infinite concentration of FtsZ, [C]tot is the total concentration of the compound, and [P]tot is the total concentration of protein with each addition. These analyses yielded the equilibrium dissociation constant (Kd) for each binding reaction.\nThe binding free energy (ΔG) at temperature T was derived from the corresponding Kd value determined at T using the following relationship:2 ΔG=−RTln(1/Kd)\nThe binding enthalpy (ΔH) and entropy (ΔS) were derived from linear fits of the ln(1/Kd) vs. 1/T plots shown in Figs. 3f and 5e using the following relationship:3 ln(1/Kd)=−ΔH/R(1/T)+ΔS/R"}, "S. aureus NRS705 (MRSA)": {"system": "S. aureus NRS705 (MRSA)", "assay": "MIC assay by broth microdilution", "type": "cell-based, Staphylococcus aureus", "details": "Staphylococcus aureus; MRSA NRS705; TH broth; ≥90% growth inhibition after 18-24 hours", "experimental": "MIC assays of 1, 3, and BOFP were conducted by standard broth microdilution in TH media. Briefly, log-phase S. aureus NRS705 (MRSA) cells were added to 96-well microtiter plates (at 5 × 10^5 CFU/mL) containing 2-fold serial dilutions of each test compound in 0.1 mL of TH broth, with each compound concentration being present in duplicate. The MIC is defined as the lowest compound concentration at which growth is ≥90% inhibited after 18-24 hours of aerobic growth."}, "[1]": {"system": "FtsZ in S. pyogenes ATCC 19615 cells", "assay": "FtsZ visualization by fluorescence microscopy in live cells", "type": "cell-based, Streptococcus pyogenes", "details": "1 µg/mL for 5 minutes", "experimental": "(§1) All differential interference contrast (DIC) and fluorescence microscopy experiments were conducted using an Olympus BX50 microscope equipped with an X-cite Exacte 200 W mercury lamp, a 100× Olympus UPLSAPO oil immersion objective (1.40 aperture), as well as both Chroma ET-EGFP (FITC/Cy2) and ET mCherry, Texas Red filters. Images were captured using a QImaging Retiga R3 charge-coupled device (CCD) camera and the Ocular-Version 2.0 software package (QImaging).\n(§2) For visualizing FtsZ in Gram-positive bacteria using BOFP, the bacterial cells were grown to log-phase in media suitable for each individual pathogen. Specifically, S. aureus NRS705 (MRSA) was grown in tryptic soy broth (TSB), E. faecalis ATCC 29212 and E. faecium ATCC 19434 were grown in lactobacilli MRS broth, S. agalactiae ATCC 12386 and S. pneumoniae ATCC 49619 were grown in TH broth, and S. pyogenes ATCC 19615 was grown in CAMH broth supplemented with 3% (v/v) LHB. For each Gram-positive bacterial strain, a total of 1 mL of cell culture was centrifuged at 15,000 × g for 1 minute and washed 2–3 times with 1 mL of PBS. After the final wash, the pelleted cells were resuspended in 500 µL of PBS containing 1 µg/mL of BOFP and incubated in the dark for 5 minutes at room temperature. The cells were then centrifuged at 15,000 × g for 1 minute, washed twice with 1 mL of PBS, and subsequently resuspended in 200 µL of PBS. […]"}, "[2]": {"system": "FtsZ in E. faecium ATCC 19434 cells", "assay": "FtsZ visualization by fluorescence microscopy in live cells", "type": "cell-based, Enterococcus faecium", "details": "1 µg/mL for 5 minutes", "experimental": "as §1, §2"}, "[3]": {"system": "FtsZ in K. pneumoniae ATCC 13883 cells", "assay": "FtsZ visualization by fluorescence microscopy in live cells", "type": "cell-based, Klebsiella pneumoniae", "details": "1 µg/mL for 5 minutes", "experimental": "as §1\nFor visualizing FtsZ in Gram-negative bacteria using BOFP, E. coli ATCC 25922, K. pneumoniae ATCC 13883, P. aeruginosa ATCC 27853, and A. baumannii ATCC 19606 were grown to log-phase in CAMH broth. For each Gram-negative bacterial strain, a total of 1 mL of cell culture was centrifuged at 15,000 × g for 1 minute and washed twice with 1 mL of Tris-buffered saline (TBS) composed of 50 mM Tris-HCl (pH 7.6) and 150 mM NaCl. After the final wash, the pelleted cells were resuspended in 500 µL of TBS containing 1 µg/mL of BOFP and pentamidine isethionate (at 0.875 mg/mL for E. coli and 3.5 mg/mL for the other three strains). The resuspended cells were then incubated in the dark for 5 minutes at room temperature, centrifuged at 15,000 × g for 1 minute, washed twice with 1 mL of TBS, and subsequently resuspended in 200 µL of TBS. This final cell suspension was then prepared for microscopy as described for the Gram-positive bacterial strains. Comparative control experiments with 1 µg/mL BODIPY FL-COOH were conducted in K. pneumoniae ATCC 13883 cells as described above for BOFP."}}, "note": "Read-outs that look alike come from different tables or passages of the source."}
{"smiles": "CC1=CC(C)=[N+]2C1=Cc1ccc(CCC(=O)OCC(Oc3ccc(F)c(C(N)=O)c3F)c3nc(-c4ccc(C(F)(F)F)cc4)c(Br)o3)n1[B-]2(F)F", "note": "(stereo not drawn) [BOFP]", "values": [{"measurement": "Kd", "setting": "A. baumannii (AbFtsZ); 15 °C, read-out: Kd - 15 °C", "value": "0.4 ± 0.03", "unit": "µM"}, {"measurement": "Kd", "setting": "A. baumannii (AbFtsZ); 25 °C, read-out: Kd - 25 °C", "value": "0.55 ± 0.02", "unit": "µM"}, {"measurement": "Kd", "setting": "A. baumannii (AbFtsZ); 37 °C, read-out: Kd - 37 °C", "value": "0.68 ± 0.04", "unit": "µM"}, {"measurement": "ΔH", "setting": "A. baumannii (AbFtsZ); from linear fit of ln(1/Kd) vs. 1/T", "value": "-4.2 ± 0.6", "unit": "kcal/mol"}, {"measurement": "MIC", "setting": "S. aureus NRS705 (MRSA)", "value": 1, "unit": "µg/mL"}, {"measurement": "Fluorescence staining / FtsZ labeling in live cells", "setting": "[1]", "value": "bright bands of fluorescence staining are clearly visible at midcell"}, {"measurement": "Fluorescence staining / FtsZ labeling in live cells", "setting": "[2]", "value": "bright bands of fluorescence staining are clearly visible at midcell"}, {"measurement": "Fluorescence staining / FtsZ labeling in live cells", "setting": "[3]; co-treated with 3.5 mg/mL pentamidine isethionate", "value": "bright fluorescence staining becomes visible both at midcell and along the cell periphery"}, {"measurement": "Fluorescence staining / FtsZ labeling in live cells", "setting": "[3]; without pentamidine isethionate", "value": "little or no FtsZ labeling"}]}
